A word on the IC50: it is the concentration that gives 50% inhibition.

Assay [1] relates to biomarkers for myocardial infarction risk. The settings on record: clinical trial; cited from earlier work.
For assay [2], the target named is T1, recombinant human FLAP protein (Homo sapiens, UniProt P20292).
T1 construct: made in house; host or cells: Sf9 insect cells (100,000 x g membrane fraction)
T1 sequence (P20292 1-161): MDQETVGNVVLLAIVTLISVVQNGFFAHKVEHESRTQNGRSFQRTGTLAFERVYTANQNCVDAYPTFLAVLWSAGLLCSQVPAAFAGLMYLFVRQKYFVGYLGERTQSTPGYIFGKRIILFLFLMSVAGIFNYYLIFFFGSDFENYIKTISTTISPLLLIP
Briefly: FLAP binding assay (Scintillation Proximity Assay, displacement of [125I]L-691,831). Particulars: recombinant human FLAP membranes, [125I]L-691,831 probe; read-out: FLAP SPA IC50. The gist of the method:
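WGA scintillation proximity beads were stirred 1 h with 5 μg of FLAP-containing membrane protein. The membranes came from baculovirus Sf9 cells, Dounce-lysed and spun to a 100,000×g pellet in buffer at pH 7.5.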

In assay [3] the test system is synthesis of LTB4 in human whole blood. Kind of assay: human whole blood LTB4 production inhibition assay. In kind it is cell-based. The settings on record: heparinized human whole blood, calcimycin 20 μM; read-out: hWB LTB4 IC50. The gist of the method: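 Readout: plasma LTB4 by antibody-based HTRF. Compound added to heparinized human whole blood, 15 min 37° C; calcimycin 20 μM final (PBS pH 7.4), 30 min 37° C; spun 1500×g 5 min, plasma taken.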

In assay [4] the test system is human glomerulonephritis. The settings on record: clinical trial; cited from earlier work.
Assay [5] relates to apoE/LDL-R double knockout mice. Particulars: oral dosing, high-fat diet from 2 months of age to 6 months; cited from earlier work.
The test system of assay [6] is ApoE−/−xCD4dnTβRII mice. The settings on record: infusion, treated for four weeks; cited from earlier work.

On to `O=C(O)[C@@H](c1ccc(OCc2ccc3ccccc3n2)cc1)C1CCCC1` [DG-031], for which the “effect on biomarkers for myocardial infarction risk” value in assay [1] was “dose-dependent suppression of several biomarkers”.

On to `Nc1ncc(-c2ccc(C3(c4noc(-c5cnc(N6CCNCC6)cn5)n4)CCC3)cc2)cn1` [Example 307, 5-(4-{1-[5-(3,4,5,6-Tetrahydro-2H-1,2′-bipyrazinyl-5′-yl)-1,2,4-oxadiazol-3-yl]-cyclobutyl}-phenyl)-pyrimidin-2-ylamine], for which the IC50 in assay [2] was 3.5 nM; in assay [3] it was 150 nM. For the molecule `COC(=O)[C@H]1CN(c2cnc(-c3nc(C4(c5ccc(-c6cnc(N)nc6)cc5)CCC4)no3)cn2)CCN1` [Example 308, (R)-5′-(3-{1-[4-(2-Amino-pyrimidin-5-yl)-phenyl]-cyclobutyl}-1,2,4-oxadiazol-5-yl)-3,4,5,6-tetrahydro-2H-1,2′-bipyrazinyl-3-carboxylic acid methyl ester], the IC50 in assay [2] is 5 nM; in assay [3] it was 480 nM. The like results for `COC(=O)[C@@H]1CN(c2cnc(-c3nc(C4(c5ccc(-c6cnc(N)nc6)cc5)CCC4)no3)cn2)CCN1` [Example 309, (S)-5′-(3-{1-[4-(2-Amino-pyrimidin-5-yl)-phenyl]-cyclobutyl}-1,2,4-oxadiazol-5-yl)-3,4,5,6-tetrahydro-2H-1,2′-bipyrazinyl-3-carboxylic acid methyl ester] were, in that order, 5.7 nM and 760 nM.

Consider `CC(C)(C)Sc1c(CC(C)(C)C(=O)O)n(Cc2ccc(Cl)cc2)c2ccc(OCc3ccc4ccccc4n3)cc12` [MK-591], for which, in assay [4], the effect on proteinuria result is on record as “reduce proteinuria”. In the case of `CC(C)c1ccc2c(c1)c(SC(C)(C)C)c(CC(C)(C)C(=O)O)n2Cc1ccc(Cl)cc1` [MK-886], in assay [5], the “decrease in plaque coverage in the aorta” value is on record as 56% and the “decrease in plaque coverage in the aortic root” value is 43%. Also, in assay [6], the “decrease in plaque area in the aortic root” value is around 40%.

These data come from patent US8580829B2 (Boehringer Ingelheim International GmbH, priority 2010, dated 2013).
